Experimental data as given in US20230233569A1 (Revolution Medicines, Inc., priority 2020, published 2023).
Several values for one entry are separate records, joined by “and”; a condition that tells them apart may be missing. Equal entries are not always repeated. Where two headings read alike, the source gives them in different places.

Assays:
[1] = system: K-Ras G12C (NCI-H358 cells); assay: Potency assay: pERK (AlphaLISA SureFire or In-Cell Western); type: cell-based; conditions: Homo sapiens
Experimental: (§1) The purpose of this assay is to measure the ability of test compounds to inhibit K-Ras in cells. […] This procedure measures a decrease in cellular pERK in response to test compounds.
(§2) NCI-H358 cells were grown and maintained using media and procedures recommended by the ATCC. On the day prior to compound addition, cells were plated in 384-well cell culture plates (40 μl/well) and grown overnight in a 37° C., 5% CO2 incubator. Test compounds were prepared in 10, 3-fold dilutions in DMSO, with a high concentration of 10 mM. On the day of assay, 40 nL of test compound was added to each well of cell culture plate using an Echo550 liquid handler (LabCyte®). Concentrations of test compound were tested in duplicate. After compound addition, cells were incubated 4 hours at 37° C., 5% CO2. Following incubation, culture medium was removed and cells were washed once with phosphate buffered saline.
(§3) In some experiments, cellular pERK level was determined using the AlphaLISA SureFire Ultra p-ERK1/2 Assay Kit (PerkinElmer). Cells were lysed in 25 μL lysis buffer, with shaking at 600 RPM at room temperature. […] After a 2-hour incubation in the dark, 5 μL donor mix was added, plate was sealed, and incubated 2 hours at room temperature. Signal was read on an Envision plate reader (PerkinElmer) using standard AlphaLISA settings. Analysis of raw data was carried out in Excel (Microsoft) and Prism (GraphPad). Signal was plotted vs. the decadal logarithm of compound concentration, and IC50 was determined by fitting a 4-parameter sigmoidal concentration response model.
In other experiments, cellular pERK was determined by In-Cell Western. […] Fixed cells were washed 4 times for 5 minutes with TBS containing 0.1% Triton X-100 (TBST) and then blocked with 100 μL Odyssey blocking buffer (LI-COR) for 60 minutes at room temperature. […] Cells were washed 4 times for 5 minutes with TBST. Secondary antibody (IR-800CW rabbit, LI-COR, diluted 1:800) and DNA stain DRAQ5 (LI-COR, diluted 1:2000) were added and incubated 1-2 hours at room temperature. Cells were washed 4 times for 5 minutes with TBST. Plates were scanned on a LI-COR Odyssey CLx Imager. Analysis of raw data was carried out in Excel (Microsoft) and Prism (GraphPad). Signal was plotted vs. the decadal logarithm of compound concentration, and IC50 was determined by fitting a 4-parameter sigmoidal concentration response model.
as §1
as §2, with “mM. On day of” for “mM. On the day of”, “assay, 40 nl of test” for “assay, 40 nL of test”
as §3, with “μl” for “μL”, “sealed” for “sealed,”

KRAS WT = KRAS WT (Homo sapiens, UniProt P01116+P62937); assay: Disruption of BRAF RBD interaction with Ras (FRET / MOA assay, with Cyclophilin A); type: biochemical; conditions: KRAS WT; read-out: KRAS WT FRET data IC50
Chain of KRAS WT (P01116 1-169 isoform P01116-2 limits assumed): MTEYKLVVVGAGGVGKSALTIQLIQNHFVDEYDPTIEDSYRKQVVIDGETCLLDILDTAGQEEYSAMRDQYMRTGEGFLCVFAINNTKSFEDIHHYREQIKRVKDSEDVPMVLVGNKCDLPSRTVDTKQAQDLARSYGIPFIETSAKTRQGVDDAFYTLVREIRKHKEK
Chain of KRAS WT (P62937 whole entry): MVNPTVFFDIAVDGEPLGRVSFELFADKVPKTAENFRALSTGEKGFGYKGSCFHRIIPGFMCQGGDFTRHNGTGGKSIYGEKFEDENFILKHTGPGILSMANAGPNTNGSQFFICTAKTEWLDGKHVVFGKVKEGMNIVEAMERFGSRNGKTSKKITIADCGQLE
Summary of the method: (§4)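 Measured via TR-FRET after 3 h at 25 °C with compound (30 μM top, threefold serial steps, ten concentrations) plus K-Ras, Cyclophilin A and BRAF RBD, followed by 1.5 h with anti-His europium (10 nM) and anti-GST allophycocyanin (50 nM). Signal loss versus DMSO gave IC50.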

KRAS G12S = KRAS G12S (Homo sapiens, UniProt P01116+P62937, G12S); assay: as above; type: biochemical; conditions: read-out: KRAS G12S FRET data, IC50
Chain of KRAS G12S (P01116 1-169 isoform P01116-2 G12S limits assumed): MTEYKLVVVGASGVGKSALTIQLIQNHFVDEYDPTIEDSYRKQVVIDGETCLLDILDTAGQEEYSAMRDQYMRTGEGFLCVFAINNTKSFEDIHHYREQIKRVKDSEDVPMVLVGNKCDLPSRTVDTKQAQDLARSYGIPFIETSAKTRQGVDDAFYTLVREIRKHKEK
Chain of KRAS G12S (P62937 whole entry): as the sequence (P62937 whole entry) above
Summary of the method: as §4

KRAS G12C = KRAS G12C (Homo sapiens, UniProt P01116+P62937, G12C); assay: as above; type: biochemical; conditions: KRAS G12C; read-out: KRAS G12C FRET data IC50
Chain of KRAS G12C (P01116 1-169 isoform P01116-2 G12C): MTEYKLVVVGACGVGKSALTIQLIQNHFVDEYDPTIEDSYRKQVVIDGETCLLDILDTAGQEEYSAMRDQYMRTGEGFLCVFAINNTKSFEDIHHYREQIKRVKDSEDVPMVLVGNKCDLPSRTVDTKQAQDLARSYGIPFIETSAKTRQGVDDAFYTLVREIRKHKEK
Chain of KRAS G12C (P62937 whole entry): as the sequence (P62937 whole entry) above
Summary of the method: as §4

KRAS G12V = KRAS G12V (Homo sapiens, UniProt P01116+P62937, G12V); assay: as above; type: biochemical; conditions: KRAS G12V; read-out: KRAS G12V FRET data IC50
Chain of KRAS G12V (P01116 1-169 isoform P01116-2 G12V limits assumed): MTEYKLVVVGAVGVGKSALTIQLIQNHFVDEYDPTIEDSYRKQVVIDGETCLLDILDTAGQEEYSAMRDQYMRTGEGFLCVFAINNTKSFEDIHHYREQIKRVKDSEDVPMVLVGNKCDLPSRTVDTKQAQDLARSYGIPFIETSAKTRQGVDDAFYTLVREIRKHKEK
Chain of KRAS G12V (P62937 whole entry): as the sequence (P62937 whole entry) above
Summary of the method: as §4

KRAS G13C = KRAS G13C (Homo sapiens, UniProt P01116+P62937, G13C); assay: as above; type: biochemical; conditions: KRAS G13C; read-out: KRAS G13C FRET data IC50
Chain of KRAS G13C (P01116 1-169 isoform P01116-2 G13C): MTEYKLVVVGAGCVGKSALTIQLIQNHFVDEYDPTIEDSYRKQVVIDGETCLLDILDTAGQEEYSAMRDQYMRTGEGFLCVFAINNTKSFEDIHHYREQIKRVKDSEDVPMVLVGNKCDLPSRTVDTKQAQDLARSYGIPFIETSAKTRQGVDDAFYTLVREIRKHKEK
Chain of KRAS G13C (P62937 whole entry): as the sequence (P62937 whole entry) above
Summary of the method: as §4

KRAS G12D = KRAS G12D (Homo sapiens, UniProt P01116+P62937, G12D); assay: as above; type: biochemical; conditions: read-out: KRAS G12D FRET data, IC50
Chain of KRAS G12D (P01116 1-169 isoform P01116-2 G12D limits assumed): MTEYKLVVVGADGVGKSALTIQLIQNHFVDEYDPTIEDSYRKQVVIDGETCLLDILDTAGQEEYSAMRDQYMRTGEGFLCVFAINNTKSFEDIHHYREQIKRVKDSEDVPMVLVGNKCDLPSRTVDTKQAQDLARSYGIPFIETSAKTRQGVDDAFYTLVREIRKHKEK
Chain of KRAS G12D (P62937 whole entry): as the sequence (P62937 whole entry) above
Summary of the method: as §4

KRAS G13D = KRAS G13D (Homo sapiens, UniProt P01116+P62937, G13D); assay: as above; type: biochemical; conditions: KRAS G13D; read-out: KRAS G13D FRET data IC50
Chain of KRAS G13D (P01116 1-169 isoform P01116-2 G13D limits assumed): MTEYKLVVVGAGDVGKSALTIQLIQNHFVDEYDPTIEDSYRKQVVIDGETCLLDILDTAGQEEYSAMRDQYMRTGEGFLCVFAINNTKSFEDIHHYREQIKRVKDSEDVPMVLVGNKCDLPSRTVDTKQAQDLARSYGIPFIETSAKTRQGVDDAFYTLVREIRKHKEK
Chain of KRAS G13D (P62937 whole entry): as the sequence (P62937 whole entry) above
Summary of the method: as §4

NRAS G12C = NRAS G12C (Homo sapiens, UniProt P01111+P62937, G12C); assay: as above; type: biochemical; conditions: NRAS G12C; read-out: NRAS G12C FRET data IC50
Chain of NRAS G12C (P01111 whole entry G12C): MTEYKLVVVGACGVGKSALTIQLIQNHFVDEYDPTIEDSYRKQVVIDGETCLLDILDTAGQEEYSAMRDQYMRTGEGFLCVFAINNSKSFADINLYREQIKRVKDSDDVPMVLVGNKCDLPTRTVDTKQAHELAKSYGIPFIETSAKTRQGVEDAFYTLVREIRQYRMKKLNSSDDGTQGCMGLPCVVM
Chain of NRAS G12C (P62937 whole entry): as the sequence (P62937 whole entry) above

NCI-H358 (K-Ras G12C) = assay: CellTiter-Glo cell viability assay, 5-day treatment; type: cell-based; conditions: Homo sapiens
Summary of the method: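 Seeded cells received test compound by direct dispensing. On day 5 the plates sat at room temperature approximately 30 minutes, then luminescence was measured. Data were normalized to DMSO and curve-fitted with four parameters.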

[2] = NCI-H358, H358 KRAS G12C, read-out: pERK EC50
[3] = NCI-H358, H358, K-Ras G12C, read-out: Additional H358 Cell Viability assay data (K-Ras G12C, IC50)

SMILES	EC50 [1, 2] [nM]	IC50 (KRAS WT)	IC50 (KRAS G12S)	IC50 (KRAS G12C)	IC50 (KRAS G12V)	IC50 (KRAS G13C)	IC50 (KRAS G12D) [nM]	IC50 (KRAS G13D)	IC50 (NRAS G12C)	IC50 (NCI-H358 (K-Ras G12C); [3]) [µM]	EC50 ([1]; NCI-H358, read-out: pERK EC50) [nM]	IC50 (NCI-H358 (K-Ras G12C); NCI-H358, read-out: Additional H358 Cell Viability assay data (K-Ras G12C, IC50, uM), H358, K-Ras G12C) [µM]
C=CC(=O)N1CC(OC[C@H](C(=O)N[C@H]2Cc3cccc(c3)-c3ccc4c(c3)c(c(-c3cccnc3[C@H](C)OC)n4CC)CC(C)(C)COC(=O)[C@@H]3CCCN(N3)C2=O)C(C)C)C1 (racemic) [Example A483]	< 5000	1000 to 10000 nM	> 10000 nM	100 to 1000 nM	1000 to 10000 nM	1000 to 10000 nM	> 10000	> 10000 nM	100 to 1000 nM	–	–	–
C=CC(=O)N1CC[C@H](C(=O)N(C)[C@H](C(=O)N[C@H]2Cc3cc(O)cc(c3)-c3ccc4c(C(C)(C)C#N)c(-c5ccccc5CCOC)n(c4c3)CC(C)(C)COC(=O)[C@@H]3CCCN(N3)C2=O)C(C)C)C1 [Example A12]	< 5000	–	–	–	–	–	–	–	–	–	–	–
C=CC(=O)N1CC[C@H](C(=O)N(C)[C@H](C(=O)N[C@H]2Cc3cccc(c3)-c3ccc4c(c3)c(c(-c3cccnc3COC)n4CC)CC(C)(C)COC(=O)[C@@H]3CCCN(N3)C2=O)C(C)C)C1 [Example A65]	< 5000	–	–	–	–	–	–	–	–	0.1 to 1	–	–
CCn1c(-c2cncnc2)c2c3cc(ccc31)-c1cc(O)cc(c1)C[C@H](NC(=O)[C@H](C(C)C)N(C)C(=O)[C@H]1CCN(C(=O)C#CCN(C)C)C1)C(=O)N1CCC[C@H](N1)C(=O)OCC(C)(C)C2 [Example A108]	< 5000	1000 to 10000 nM	1000 to 10000 nM	< 10 nM	1000 to 10000 nM	10 to 100 nM	1000 to 10000	1000 to 10000 nM	< 10 nM	< 0.01	–	–
C=CC(=O)N1CC[C@H](C(=O)N(C)[C@H](C(=O)N[C@H]2Cc3cc(O)cc(c3)-c3ccc4c(c3)c(c(-c3cc(CN(C)C)cnc3COC)n4CC)CC(C)(C)COC(=O)[C@@H]3CCCN(N3)C2=O)C(C)C)C1 [Example A149]	< 5000	100 to 1000 nM	100 to 1000 nM	10 to 100 nM	100 to 1000 nM	100 to 1000 nM	1000 to 10000	100 to 1000 nM	10 to 100 nM	0.01 to 0.1	–	–
C=CC(=O)N1CC[C@H](C(=O)N(C)[C@H](C(=O)N[C@H]2Cc3cc(O)cc(c3)-c3ccc4c(c3)c(c(-c3cnn(C)c3[C@H](C)OC)n4CC)CC(C)(C)COC(=O)[C@@H]3CCCN(N3)C2=O)C(C)C)C1 [Example A166]	< 5000	–	–	–	–	–	–	–	–	–	–	–
CC#CC(=O)N1CC[C@H](C(=O)N(C)[C@@H](C(=O)N[C@H]2Cc3cc(O)cc(c3)-c3ccc4c(c3)c(c(-c3cccnc3[C@H](C)OC)n4CC)CC(C)(C)COC(=O)[C@@H]3CCCN(N3)C2=O)C(C)C)C1 [Example A199]	–	–	–	–	–	–	–	–	–	–	< 5000	0.1 to 1
C=CC(=O)N1CC[C@H](C(=O)N(C)[C@H](C(=O)N[C@H]2Cc3cc(O)cc(c3)-c3ccc4c(c3)c(c(-c3ccc5c(c3)CN(C)C5)n4CC)CC(C)(C)COC(=O)[C@@H]3CCCN(N3)C2=O)C(C)C)C1 [Example A212]	< 5000	1000 to 10000 nM and > 10000 nM	1000 to 10000 nM and > 10000 nM	100 to 1000 nM and 1000 to 10000 nM	1000 to 10000 nM and > 10000 nM	1000 to 10000 nM and > 10000 nM	> 10000	1000 to 10000 nM and > 10000 nM	100 to 1000 nM and 1000 to 10000 nM	–	–	–
C=CC(=O)N1CC[C@]2(CCN([C@H](C(=O)N[C@H]3Cc4cc(O)cc(c4)-c4ccc5c(c4)c(c(-c4ccccc4CCOC)n5CC)CC(C)(C)COC(=O)[C@@H]4CCCN(N4)C3=O)C(C)C)C2=O)C1 [Example A216]	< 5000	1000 to 10000 nM and > 10000 nM	1000 to 10000 nM and > 10000 nM	100 to 1000 nM and 1000 to 10000 nM	1000 to 10000 nM and > 10000 nM	100 to 1000 nM and > 10000 nM	> 10000	–	–	–	–	–
C=CC(=O)N1CCC(C(=O)N(C)C(C(=O)NC2Cc3nc(cs3)-c3ccc4c(c3)c(c(-c3cccnc3C(C)OC)n4CC)CC(C)(C)COC(=O)C3CCCN(N3)C2=O)C(C)C)C1 (stereo not shown) [Example A279]	< 5000	> 10000 nM	> 10000 nM	1 µM to 10 µM and > 10 µM (2×)	> 10000 nM	1 µM to 10 µM and > 10 µM (2×)	> 10000	> 10000 nM	1 µM to 10 µM and > 10 µM (2×)	–	–	–
CCn1c(-c2cccnc2[C@H](C)OC)c2c3cc(ccc31)-c1cccc(c1)C[C@H](NC(=O)[C@H](C(C)C)N(C)C(=O)[C@H]1CCN(C(=O)C#C[C@@H]3CCO3)C1)C(=O)N1CCC[C@H](N1)C(=O)OCC(C)(C)C2 [Example A509]	< 5000	–	–	–	–	–	–	–	< 10 nM	< 0.01	–	–
CCn1c(-c2cccnc2[C@H](C)OC)c2c3cc(ccc31)-c1cccc(n1)C[C@H](NC(=O)[C@H](C(C)C)N1CC[C@@]3(CCN(C(=O)C#C[C@@H]4COCCN4C)C3)C1)C(=O)N1CCC[C@H](N1)C(=O)OCC(C)(C)C2 [Example A549]	< 5000	–	–	–	–	–	–	–	–	< 0.01	–	–
CCn1c(-c2cccnc2[C@H](C)OC)c2c3cc(ccc31)-c1cccc(c1)C[C@H](NC(=O)[C@H](C(C)C)N1CC[C@@]3(CCN(C(=O)C#C[C@@H]4COCCN4C4COC4)C3)C1=O)C(=O)N1CCC[C@H](N1)C(=O)OCC(C)(C)C2 [Example A566]	< 5000	–	–	–	–	–	–	–	–	< 0.01	–	–
